Test results as given in ChEMBL document CHEMBL3421609, “Sandensone A, a novel sesquiterpenoid from the Formosan soft coral Sinularia sandensis” (2015).
The source made the active and inactive calls. The rule behind the calls is not given here.

Columns and labels:
P388 = test: Cytotoxicity against mouse P388 cells by MTT assay; assay type: functional; conditions: read-out: ED50 (the source's name)
A549 = test: Cytotoxicity against human A549 cells by MTT assay; assay type: functional; conditions: read-out: ED50 (the source's name)
HT-29 = test: Cytotoxicity against human HT-29 cells by MTT assay; assay type: functional; conditions: read-out: ED50 (the source's name)
Human betaherpesvirus 5 [1] = test: Antiviral activity against human cytomegalovirus infected in HEL cells assessed as reduction in virus replication at 1 ug/ml; assay type: functional, organism-based
Human betaherpesvirus 5 [2] = test: Antiviral activity against human cytomegalovirus infected in HEL cells assessed as reduction in virus replication; assay type: functional; conditions: Human betaherpesvirus 5, HEL; read-out: ED50 (the source's name)

EC50 (Human betaherpesvirus 5 [2]) | Structure (SMILES) | EC50 (P388) | EC50 (A549) | EC50 (HT-29) | Activity (Human betaherpesvirus 5 [1])
– | CO[C@H](C(=O)[C@@H](O)[C@@H](C)O)[C@@H]1Cc2cc3cc(O[C@H]4C[C@@H](O[C@@H]5C[C@@H](O)[C@H](O)[C@@H](C)O5)[C@H](O)[C@@H](C)O4)c(C)c(O)c3c(O)c2C(=O)[C@H]1O[C@H]1C[C@@H](O[C@@H]2C[C@@H](O)[C@@H](O[C@@H]3C[C@](C)(O)[C@H](O)[C@@H](C)O3)[C@@H](C)O2)[C@H](O)[C@@H](C)O1 [PLICAMYCIN] | 50 nM | 60 nM | 70 nM | –
> 50 µg/mL | C=C/C(C)=C/C/C=C(\C)[C@H]1C(=O)C=C(C)[C@@H]1O | 22000 nM | > 50000 nM | 38000 nM | inactive
